Assay results published in patent publication US6048854A, “2,3-diaminopropionic acid derivative” (Sumitomo Pharmaceuticals Company, Limited, priority 1993, dated 2000).
Where two headings read alike, the source gives them in different places.

Key:
platelet aggregation [1] = assay: Platelet aggregation inhibitory activity (ADP-induced, human platelet rich plasma); type: cell-based; conditions: Homo sapiens, Table 3, same manner as Example 17
In short: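 Citrated human platelet-rich plasma […] was stirred with test compound for 2 min at 37 °C. Aggregation was then induced with ADP at 3 μg/ml final and monitored by nephelometry. IC50 is the concentration giving 50% inhibition of aggregation.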

platelet aggregation [2] = assay: Platelet aggregation inhibitory activity (ex vivo) after oral administration; type: in vivo; conditions: Cavia porcellus, guinea pig, oral 0.1 mg/kg, ADP 10 μg/ml
In short: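 Guinea pigs dosed orally at 0.1 mg/kg; citrated carotid blood taken before and at 0.5, 1, 2, 4 and 6 h. PRP aggregation induced by ADP (10 μg/ml final) at 37° C, measured turbidimetrically; inhibition = (1 − MAR sample/MAR predose) × 100.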

human vitronectin = assay: Binding assay of platelet to adhesive protein: vitronectin (receptor binding inhibition); conditions: Table 4; fixed activated human platelets, 37° C., 60 minutes; read-out: receptor binding inhibition (IC50), Bitronectin
In short: (§1)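 Washed human platelets, activated with 5 µM epinephrine and 30 µM ADP, then paraformaldehyde-fixed, added at 10^8/mL with compound to wells coated with 5 µg/mL fibrinogen (fibronectin-depleted), fibronectin or vitronectin; 60 min, 37 °C. Bound platelets detected with HRP anti-mouse IgG and o-phenylenediamine, A490.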

human fibronectin = assay: Binding assay of platelet to adhesive protein: fibronectin (receptor binding inhibition); conditions: Table 4; fixed activated human platelets, 37° C., 60 minutes
In short: as §1

human fibrinogen = target: T1, human fibrinogen (Homo sapiens, UniProt P05106+P08514); assay: Binding assay of platelet to adhesive protein: fibrinogen (receptor binding inhibition); conditions: Table 4; fixed activated human platelets, 37° C., 60 minutes
T1 construct: centrifuged at 11000 rpm for two minutes to give human platelet; from tissue
T1 sequence (P08514 32-887 limits assumed): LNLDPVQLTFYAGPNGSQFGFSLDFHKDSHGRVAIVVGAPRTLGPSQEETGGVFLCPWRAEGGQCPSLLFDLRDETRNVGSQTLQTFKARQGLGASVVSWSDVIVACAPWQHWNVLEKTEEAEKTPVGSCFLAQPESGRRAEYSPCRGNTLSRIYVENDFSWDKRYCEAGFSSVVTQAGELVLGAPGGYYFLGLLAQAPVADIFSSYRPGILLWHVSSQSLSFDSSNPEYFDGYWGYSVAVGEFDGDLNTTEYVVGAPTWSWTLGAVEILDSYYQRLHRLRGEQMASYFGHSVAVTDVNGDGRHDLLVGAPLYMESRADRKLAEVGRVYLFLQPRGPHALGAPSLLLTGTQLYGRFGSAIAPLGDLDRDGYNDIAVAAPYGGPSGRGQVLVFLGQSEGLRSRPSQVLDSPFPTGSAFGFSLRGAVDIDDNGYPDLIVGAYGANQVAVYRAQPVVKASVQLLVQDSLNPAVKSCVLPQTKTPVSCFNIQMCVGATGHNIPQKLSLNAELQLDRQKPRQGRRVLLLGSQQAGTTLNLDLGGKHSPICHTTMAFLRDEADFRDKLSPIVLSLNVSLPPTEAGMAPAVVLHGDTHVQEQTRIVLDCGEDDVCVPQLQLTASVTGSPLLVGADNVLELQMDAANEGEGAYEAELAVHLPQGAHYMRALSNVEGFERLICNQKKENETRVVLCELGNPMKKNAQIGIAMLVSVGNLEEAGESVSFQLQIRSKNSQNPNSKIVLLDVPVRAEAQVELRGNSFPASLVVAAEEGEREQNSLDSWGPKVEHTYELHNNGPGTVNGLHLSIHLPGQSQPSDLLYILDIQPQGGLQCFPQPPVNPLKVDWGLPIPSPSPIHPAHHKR
T1 sequence (P08514 891-1039 limits assumed): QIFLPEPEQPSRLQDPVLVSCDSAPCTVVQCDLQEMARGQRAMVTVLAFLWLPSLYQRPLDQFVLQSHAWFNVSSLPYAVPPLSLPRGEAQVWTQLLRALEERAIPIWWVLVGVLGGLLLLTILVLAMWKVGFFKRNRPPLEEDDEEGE
T1 sequence (P05106 27-788): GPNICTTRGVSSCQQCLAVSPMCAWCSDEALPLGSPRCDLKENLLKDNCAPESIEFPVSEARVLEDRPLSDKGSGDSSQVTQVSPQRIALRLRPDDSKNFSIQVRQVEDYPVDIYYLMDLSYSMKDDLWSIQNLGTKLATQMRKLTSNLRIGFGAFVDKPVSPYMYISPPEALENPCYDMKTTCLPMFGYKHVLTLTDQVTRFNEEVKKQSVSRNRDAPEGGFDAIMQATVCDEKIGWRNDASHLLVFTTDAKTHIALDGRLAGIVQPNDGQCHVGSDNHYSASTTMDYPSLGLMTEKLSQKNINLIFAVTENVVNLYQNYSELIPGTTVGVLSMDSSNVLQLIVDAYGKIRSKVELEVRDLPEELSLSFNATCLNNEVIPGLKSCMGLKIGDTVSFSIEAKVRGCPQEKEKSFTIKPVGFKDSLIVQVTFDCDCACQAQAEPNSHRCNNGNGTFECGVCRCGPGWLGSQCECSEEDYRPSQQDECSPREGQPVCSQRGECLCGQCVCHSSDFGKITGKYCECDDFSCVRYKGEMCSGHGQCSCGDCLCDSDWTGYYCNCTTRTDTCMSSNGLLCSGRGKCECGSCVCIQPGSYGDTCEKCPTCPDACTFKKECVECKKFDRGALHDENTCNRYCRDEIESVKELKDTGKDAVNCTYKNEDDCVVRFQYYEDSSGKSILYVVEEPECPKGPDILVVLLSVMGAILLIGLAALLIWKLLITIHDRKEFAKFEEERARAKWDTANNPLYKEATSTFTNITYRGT
In short: as §1

## COc1ccc(S(=O)(=O)N[C@@H](CNC(=O)CC2CCN(c3ccc(C(=N)N)cc3)CC2)C(=O)O)cc1 [Example 93, (2S)-3-(2-(1-(4-amidinophenyl)-4-piperidyl)ethanoylamino)-2-(4-methoxy)benzenesulfonylaminopropanoic Acid]
Platelet aggregation [1]
  IC50: 93 nM
Platelet aggregation [2]; 0.5 hr, read-out: platelet aggregation inhibitory rate (%), 0.5 hr
  inhibition in vivo at 0.1 mg/kg: 4%
Platelet aggregation [2]; 1 hr, read-out: platelet aggregation inhibitory rate (%), 1 hr
  inhibition in vivo at 0.1 mg/kg: 27%
Platelet aggregation [2]; 2 hrs, read-out: platelet aggregation inhibitory rate (%), 2 hrs
  inhibition in vivo at 0.1 mg/kg: 69%
Platelet aggregation [2]; 4 hrs, read-out: platelet aggregation inhibitory rate (%), 4 hrs
  inhibition in vivo at 0.1 mg/kg: 44%
Platelet aggregation [2]; 6 hrs, read-out: platelet aggregation inhibitory rate (%), 6 hrs
  inhibition in vivo at 0.1 mg/kg: 12%
Human vitronectin
  IC50: 3500 nM
Human fibronectin
  IC50: 95 nM
Human fibrinogen
  IC50: 15 nM
